According to patent US20090143279A1 (priority 2007, published 2009):
Several values for one entry are separate records, joined by “and”; a condition that tells them apart may be missing. Identical values can stand only once. Like-named read-outs stand apart in the source and are kept apart here. Where a SMILES comes first, the peptide text is derived from it.

Key:
[1] = test system: mitochondrial membrane potential; assay type: cell-based, mouse
[2] = test system: cytochrome c; assay type: cell-based, mouse
Sequence of cytochrome c (P62897 whole entry): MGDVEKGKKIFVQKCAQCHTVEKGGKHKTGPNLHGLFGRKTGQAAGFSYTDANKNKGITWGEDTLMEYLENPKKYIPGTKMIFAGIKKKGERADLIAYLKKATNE

[3] = test system: reactive oxygen species; assay type: cell-based, mouse
[4] = test system: C2C12 myotubes
[5] = test system: cellular dehydrogenase activity
[6] = composite Z-score vs mock-treated (DMSO) wells, Conc 20 μM
[7] = Table 4, C2C12 myotubes, 48 h, composite Z-score
[8] = Table 4, C2C12 myotubes, 48 h, JC-1, composite Z-score
[9] = composite Z-score vs mock-treated (DMSO) wells, concentration of each compound in μM

C[C@@]1(O)CCOC(=O)C1 (racemic) [mevalonic-DL-acid lactone]
ΔΨm [1]: −0.183 | cyt c [2]: −0.252

C[C@@H](N)[C@@H](O)c1ccccc1 [1S,2R-phenylpropanolamine]
ROS [3]: 0.721 | Viability [4]: 0.296 | ΔΨm [1]: −0.137 | MTT [5]: −1.507 | cyt c ([2]; composite Z-score vs DMSO, Conc 20 μM): 0.280

O=C(O)CCCOc1ccc(Cl)cc1Cl [2,4-dichlorophenoxybutyric acid]
ROS [3]: 0.758 | Viability [4]: 0.337 | ΔΨm [1]: −0.479 | MTT [5]: −1.368 | cyt c [2]: 0.711

C[C@]12CC[C@@H](O)C[C@H]1CC[C@@H]1[C@@H]2CC[C@]2(C)C(=O)CC[C@@H]12 [3-alpha-hydroxy-5-beta-androstan-17-one]
ROS [3]: 1.400 | ΔΨm [1]: −1.010 | MTT [5]: −1.534 | cyt c [2]: 0.285

CC(C)NC[C@@H](O)COc1ccc(CC(N)=O)cc1 [(R)-(+)-atenolol]
ROS [3]: 1.639 | Viability [4]: −0.846 | ΔΨm [1]: −0.573 | MTT [5]: −1.053 | cyt c [2]: −0.033

COc1ccc2cc([C@@H](C)C(=O)[O-])ccc2c1.[Na+] [(R)-naproxen sodium salt]
ROS [3]: −0.736 | Viability [4]: 0.632 | ΔΨm [1]: −0.253 | MTT [5]: 0.325 | cyt c [2]: 0.444

N#CC(C#N)=NNc1cccc(Cl)c1 [CCCP, carbonyl cyanide m-chlorophenylhydrazone, reference compound]
mitochondrial membrane potential ([1]; assay control, FIG. 3-3): depolarization

CC([C@H](O)c1ccccc1)N(C)C (stereo partly drawn) [N-methyl (−)ephedrine]
ΔΨm [1]: −0.068

CCN(CC)C(=O)N[C@H]1C[C@@H]2c3cccc4[nH]cc(c34)C[C@H]2N(C)C1 [S(+)-terguride]
ΔΨm [1]: −0.585

Cc1c(N(C)C)c(=O)n(-c2ccccc2)n1C [amidopyrine]
ROS [3]: −0.776 | Viability [4]: 0.691 | ΔΨm [1]: −0.496 | MTT [5]: −0.051 | cyt c [2]: 0.748

CC1(C)S[C@@H]2[C@H](NC(=O)[C@H](N)c3ccc(O)cc3)C(=O)N2[C@H]1C(=O)O [amoxicillin]
ROS [3]: 1.061

C[C@@H]1[C@H](O)[C@@H](C)/C=C/C=C/C=C/C=C/C=C/C=C/C=C/[C@H](O[C@@H]2O[C@H](C)[C@@H](O)[C@H](N)[C@@H]2O)C[C@@H]2O[C@](O)(C[C@@H](O)C[C@@H](O)[C@H](O)CC[C@@H](O)C[C@@H](O)CC(=O)O[C@H]1C)C[C@H](O)[C@H]2C(=O)O [amphotericin B]
ROS [3]: 0.005 | Viability [4]: 1.210 | ΔΨm [1]: 0.308 | MTT [5]: −0.790 | cyt c [2]: −0.982

CC1(C)S[C@@H]2[C@H](NC(=O)Cc3ccccc3)C(=O)N2[C@H]1C(=O)O.CC1(C)S[C@@H]2[C@H](NC(=O)Cc3ccccc3)C(=O)N2[C@H]1C(=O)O.c1ccc(CNCCNCc2ccccc2)cc1 [benzathine benzylpenicillin]
ΔΨm [1]: 0.729

CC(=O)[O-].CC(=O)[O-].[Cd+2] [cadmium acetate]
ROS [3]: −1.066 | Viability [4]: −1.393 | ΔΨm [1]: −1.276 | MTT [5]: −1.896 | cyt c [2]: −2.166

CC1(C)C(=O)C=C[C@@]2(C)C1=C(O)C(=O)[C@]1(C)[C@@H]2CC[C@@]2(C)[C@H](c3ccoc3)C[C@H]3O[C@]321 [cedrelone]
ROS [3, 6]: −3.982 | Viability [4, 6]: −4.680 | ΔΨm [1, 6]: −3.459 | MTT [5, 6]: −6.617 | cyt c [2, 6]: −5.998

CN(C)CCCN1c2ccccc2CCc2ccc(Cl)cc21 [clomipramine]
ROS [3]: 0.466

Clc1ccccc1C(c1ccccc1)(c1ccccc1)n1ccnc1 [clotrimazole]
ROS [3]: 2.521 | Viability [4]: 0.099

COc1cc2c(cc1OC)[C@@H]1C(=O)c3ccc4c(c3O[C@@H]1CO2)C=CC(C)(C)O4 [deguelin(−), reference compound]
ROS [3, 7]: 0.426 | Viability [4, 7]: −0.940 | ΔΨm [1, 8]: 1.451 | MTT [5, 7]: −4.052

C[C@@H]1C[C@H]2[C@@H]3CCC4=CC(=O)C=C[C@]4(C)[C@@]3(F)[C@@H](O)C[C@]2(C)[C@@]1(O)C(=O)CO [dexamethasone]
ΔΨm [1]: 0.240 and 0.273

OCCN(CCO)c1nc(N2CCCCC2)c2nc(N(CCO)CCO)nc(N3CCCCC3)c2n1 [dipyridamole]
Viability [4]: 2.069 and 1.042 | ΔΨm [1]: 0.298 and 0.474 | cyt c [2]: 0.377 and 0.276

COc1ccc([C@H]2COc3c(ccc(O)c3OC)C2)c(OC)c1O [duartin(−), reference compound]
ROS [3, 7]: 0.900

Oc1ccc([C@H]2Oc3cc(O)cc(O)c3C[C@H]2O)cc1 [epiafzelechin(2r,3r)(−), reference compound]
ROS [3, 7]: 1.019 | Viability [4, 7]: −0.719 | ΔΨm [1, 8]: −3.118 | MTT [5, 7]: −0.486

CC(C)n1c(/C=C/C(O)CC(O)CC(=O)O)c(-c2ccc(F)cc2)c2ccccc21 (stereo not shown) [fluvastatin, reference compound]
MTT activity ([5]; screen, FIG. 9a, in words): strong decreases

CC(C)[N+]1(C)[C@@H]2CC[C@H]1C[C@@H](OC(=O)C(CO)c1ccccc1)C2 (stereo partly shown) [ipratropium]
ROS [3]: 1.245

CC(C(=O)O)c1cccc(C(=O)c2ccccc2)c1 (stereo not shown) [ketoprofen]
ROS [3]: 0.545

CC[C@H](C)C(=O)O[C@H]1C[C@@H](C)C=C2C=C[C@H](C)[C@H](CC[C@@H]3C[C@@H](O)CC(=O)O3)[C@H]21 [lovastatin, reference compound]
MTT activity [5]: strong decreases | cyt c (composite Z-score vs DMSO) [2]: −1.628

COC(=O)Nc1nc2ccc(SC(C)C)cc2[nH]1 [methiazole, reference compound]
ROS [3, 7]: −2.515 | Viability [4, 7]: −0.683 | ΔΨm [1, 8]: 0.040 | MTT [5, 7]: −0.654

CS(=O)(=O)Nc1ccc([N+](=O)[O-])cc1Oc1ccccc1 [nimesulide]
ROS [3]: 1.468 and 1.174

CCC1(c2ccc(N)cc2)CCC(=O)NC1=O (stereo not shown) [para-aminoglutethimide]
ΔΨm [1]: −0.416

C[C@]12C=CC(=O)C=C1CC[C@@H]1[C@@H]2[C@@H](O)C[C@@]2(C)[C@H]1CC[C@]2(O)C(=O)CO [prednisolone]
ROS [3]: 0.248

CC(=O)[C@H]1CC[C@H]2[C@@H]3CC=C4C[C@@H](O)CC[C@]4(C)[C@H]3CC[C@]12C [pregnenolone]
ΔΨm [1]: 0.542

C=C(C)[C@H]1Cc2c(ccc3c2O[C@@H]2COc4cc(OC)c(OC)cc4[C@@H]2C3=O)O1 [rotenone, reference compound]
MTT activity ([5]; assay control, FIG. 3-2): inhibited

CCC(C)(C)C(=O)O[C@H]1C[C@@H](C)C=C2C=C[C@H](C)[C@H](CC[C@@H]3C[C@@H](O)CC(=O)O3)[C@H]21 [simvastatin, reference compound]
MTT activity ([5]; screen, FIG. 9a, in words): strong decreases

CN[C@@H]1C[C@H]2O[C@@](C)([C@@H]1OC)n1c3ccccc3c3c4c(c5c6ccccc6n2c5c31)C(=O)NC4 [staurosporine, reference compound]
cell death (calcein) ([4]; assay control, FIG. 3-1): cell death in a dose dependent manner

Cc1cc(NS(=O)(=O)c2ccc(N)cc2)no1 [sulfamethoxazole]
ROS [3]: 1.114

CC1=C(CC(=O)O)c2cc(F)ccc2/C1=C\c1ccc([S+](C)[O-])cc1 (stereo not shown) [sulindac]
Viability [4]: 0.777

O=c1n(CCCN2CCN(c3cccc(Cl)c3)CC2)nc2ccccn12 [trazodone]
cyt c (composite Z-score vs DMSO) [2]: 0.028 and 0.038

CC(C)(C)C(=O)C(Oc1ccc(Cl)cc1)n1cncn1 (stereo not shown) [triadimefon]
cyt c [2]: 0.286

C[C@]12C=CC(=O)C=C1CC[C@H]1[C@@H]3C[C@@H](O)[C@](O)(C(=O)CO)[C@@]3(C)C[C@H](O)[C@@]12F [triamcinolone]
cyt c [2]: −1.483 | cyt c (composite Z-score vs DMSO) [2]: 0.087

C[n+]1cccc(C(=O)[O-])c1 [trigonelline]
cyt c (composite Z-score) [2]: −0.072

COc1cc(Cc2cnc(N)nc2N)cc(OC)c1OC [trimethoprim]
ROS [3]: 1.375

C[C@@H]1O[C@@H](OC[C@H]2O[C@@H](Oc3c(-c4ccc(OCCO)c(OCCO)c4)oc4cc(OCCO)cc(O)c4c3=O)[C@H](O)[C@@H](O)[C@@H]2O)[C@H](O)[C@H](O)[C@H]1O [troxerutin]
cyt c [2, 9]: −0.673

COc1cc2c3cc1Oc1cc(ccc1O)C[C@@H]1c4c(cc(OC)c(O)c4Oc4ccc(cc4)C[C@@H]3N(C)CC2)CC[N+]1(C)C [tubocurarine]
cyt c [2, 9]: 1.117

CC[C@H]1OC(=O)C[C@@H](O)[C@H](C)[C@@H](O[C@@H]2O[C@H](C)[C@@H](O[C@H]3C[C@@](C)(O)[C@@H](O)[C@H](C)O3)[C@H](N(C)C)[C@H]2O)[C@@H](CC=O)C[C@@H](C)C(=O)/C=C/C(C)=C/[C@@H]1CO[C@@H]1O[C@H](C)[C@@H](O)[C@@H](OC)[C@H]1OC [tylosin]
cyt c [2, 9]: −0.007

O=c1ccc2ccc(O)cc2o1 [umbelliferone]
cyt c (composite Z-score) [2]: −0.272

CC(C)[C@H](N)C(=O)N[C@@H](Cc1c[nH]c2ccccc12)C(=O)O [valyltryptophan] (H-Val-Trp-OH)
cyt c [2, 9]: −0.626

COc1ccc(C(CN(C)C)C2(O)CCCCC2)cc1 (stereo not shown) [venlafaxine]
cyt c [2, 9]: 0.627

CC(=O)CC(c1ccccc1)c1c(O)c2ccccc2oc1=O (stereo not shown) [warfarin]
cyt c [2]: 0.267

C[C@H]1CCCC(=O)CCC/C=C/c2cc(O)cc(O)c2C(=O)O1 [zearalenone]
cyt c [2, 9]: −0.185

Cc1cn([C@H]2C[C@H](N=[N+]=[N-])[C@@H](CO)O2)c(=O)[nH]c1=O [zidovudine]
cyt c [2]: 0.611 | cyt c (composite Z-score vs DMSO mock-treated wells) [2]: 0.637

(−)-MK 801
ΔΨm [1]: −0.786

amyleine
MTT [5]: −0.719

catechin hydrate [reference compound]
cyt c [2]: 1.085

methyl benzethonium chloride
ROS [3]: −1.501 | Viability [4]: −2.690 | ΔΨm [1]: 0.480 | MTT [5]: −4.304

trisodium ethylenediamine tetracetate
ROS [3]: −0.436 | Viability [4]: −0.946 | ΔΨm [1]: 0.474 | MTT [5]: −1.123
